Experimental data from ChEMBL document CHEMBL1671744 (Antimicrob Agents Chemother, 2010).
In brackets after ≈: the same amount, converted by molar mass. Where a SMILES comes first, the peptide text is derived from it. [ ]: non-standard residue; d: D form. The star is where a group is joined. Undecanoyl = CCCCCCCCCCC(=O)*; Nphe = O=C(O)CNCc1ccccc1; OBn = c1ccc(CO*)cc1

Tests used:
[1] = test system: Escherichia coli; test: Antimicrobial activity against Escherichia coli; assay type: functional
[2] = test system: Pseudomonas aeruginosa; test: microbe, parasite or virus in culture; assay type: functional
[3] = test system: Staphylococcus aureus; test: Antimicrobial activity against Staphylococcus aureus; assay type: functional
[4] = erythrocyte
[5] = in vitro
[6] = test system: Aspergillus fumigatus; test: Antimicrobial activity against Aspergillus fumigatus; assay type: functional
[7] = test system: Bacillus subtilis; test: Antimicrobial activity against Bacillus subtilis; assay type: functional

Structure (SMILES) | MIC [1] | MIC [3] | MHC [4] | other results
CC[C@@H](C)[C@@H](NC(=O)[C@@H](C)NC(=O)[C@@H](CCCCN)NC(=O)[C@@H](CC(C)C)NC(=O)[C@@H](C)NC(=O)[C@H](NC(=O)[C@@H](Cc1cnc[nH]1)NC(=O)[C@@H](CC(C)C)NC(=O)[C@H](NC(=O)[C@H](NC(=O)[C@@H](CCCCN)NC(=O)[C@@H](CCCCN)NC(=O)[C@@H](C)NC(=O)[C@@H](CO)NC(=O)[C@@H](CCCCN)NC(=O)[C@@H](Cc1ccccc1)NC(=O)[C@H](NC(=O)[C@@H](CCCCN)NC(=O)[C@@H](CC(C)C)NC(=O)[C@@H](Cc1ccccc1)NC(=O)[C@@H](CO)NC(=O)[C@@H](CCCCN)NC(=O)[C@@H](Cc1c[nH]c2ccccc12)NC(=O)[C@@H](CCCCN)NC(C)=O)[C@H](C)O)[C@H](C)O)C(C)C)[C@H](C)O)C(=O)N[C@H](CO)C(=O)N[C@H](CO)C(N)=O | 1.1 µM (≈ 3.29 µg/mL) | – | – | MIC [2]: 5.3 µM (≈ 15.9 µg/mL)
CC[C@H](C)[C@H](NC(=O)[C@H](CCCCN)NC(=O)[C@@H](NC(=O)[C@H](CCC(N)=O)NC(=O)[C@@H](N)CCCNC(=N)N)[C@@H](C)CC)C(=O)N[C@@H](Cc1c[nH]c2ccccc12)C(=O)N[C@@H](Cc1ccccc1)C(=O)N[C@@H](CCC(N)=O)C(=O)N[C@@H](CC(N)=O)C(=O)N[C@@H](CCCNC(=N)N)C(=O)N[C@@H](CCCNC(=N)N)C(=O)N[C@@H](CCSC)C(=O)N[C@@H](CCCCN)C(=O)N[C@@H](Cc1c[nH]c2ccccc12)C(=O)N[C@@H](CCCCN)C(=O)N[C@@H](CCCCN)C(=O)NCCCC[C@H](NC(=O)[C@H](CCCCN)NC(=O)[C@H](CCCCN)NC(=O)[C@H](Cc1c[nH]c2ccccc12)NC(=O)[C@H](CCCCN)NC(=O)[C@H](CCSC)NC(=O)[C@H](CCCNC(=N)N)NC(=O)[C@H](CCCNC(=N)N)NC(=O)[C@H](CC(N)=O)NC(=O)[C@H](CCC(N)=O)NC(=O)[C@H](Cc1ccccc1)NC(=O)[C@H](Cc1c[nH]c2ccccc12)NC(=O)[C@@H](NC(=O)[C@H](CCCCN)NC(=O)[C@@H](NC(=O)[C@H](CCC(N)=O)NC(=O)[C@@H](N)CCCNC(=N)N)[C@@H](C)CC)[C@@H](C)CC)C(N)=O | 2 µM (≈ 9.21 µg/mL) | 1 µM (≈ 4.6 µg/mL) | 25 µM | –
CC[C@H](C)[C@H](NC(=O)[C@H](CC(C)C)NC(=O)[C@H](CCCCN)NC(=O)[C@H](CC(C)C)NC(=O)[C@H](CC(C)C)NC(=O)[C@@H](NC(=O)[C@H](Cc1cnc[nH]1)NC(=O)[C@H](CC(C)C)NC(=O)[C@@H](NC(=O)[C@@H](NC(=O)[C@H](CCCCN)NC(=O)[C@H](CCCCN)NC(=O)[C@H](CC(C)C)NC(=O)[C@H](CO)NC(=O)[C@H](CCCCN)NC(=O)[C@H](Cc1ccccc1)NC(=O)[C@@H](NC(=O)[C@H](CCCCN)NC(=O)[C@H](CC(C)C)NC(=O)[C@H](Cc1ccccc1)NC(=O)[C@H](CO)NC(=O)[C@H](Cc1c[nH]c2ccccc12)NC(=O)[C@H](CCCCN)NC(C)=O)[C@@H](C)O)[C@@H](C)O)C(C)C)[C@@H](C)O)C(=O)N[C@@H](CO)C(=O)N[C@@H](CO)C(N)=O | – | – | 1.3 µM | MIC [2]: 168 µM (≈ 502 µg/mL)
N=C(N)NCCC[C@H](NC(=O)[C@H](Cc1c[nH]c2ccccc12)NCCCC[C@H](N[C@@H](Cc1c[nH]c2ccccc12)C(=O)N[C@@H](CCCNC(=N)N)C(=O)O)C(=O)NCCCC[C@H](NC(=O)[C@H](CCCCN[C@@H](Cc1c[nH]c2ccccc12)C(=O)N[C@@H](CCCNC(=N)N)C(=O)O)N[C@@H](Cc1c[nH]c2ccccc12)C(=O)N[C@@H](CCCNC(=N)N)C(=O)O)C(=O)NCCC(N)=O)C(=O)O | 2.4 µM (≈ 4.43 µg/mL) | 8.7 µM (≈ 16.1 µg/mL) | – | HC50 ([5]; red blood cells): 760 µM
CCCCCCCCCCCCCCCC(=O)N[C@@H](CCCCN)C(=O)N[C@@H](CCCCN)C(=O)N[C@@H](CCCCN)C(N)=O | 1.56 µM (≈ 0.998 µg/mL) | – | – | HC50 ([5]; red blood cells): 100 µM; MIC [6]: 3.1 µM (≈ 1.98 µg/mL)
N=C(N)NCCC[C@H](NC(=O)[C@H](Cc1c[nH]c2ccccc12)NC(=O)[C@H](CCCNC(=N)N)NC(=O)[C@H](Cc1c[nH]c2ccccc12)NC(=O)[C@H](CCCNC(=N)N)NC(=O)[C@H](Cc1c[nH]c2ccccc12)NC(=O)[C@H](CCCNC(=N)N)NC(=O)[C@H](Cc1c[nH]c2ccccc12)NC(=O)[C@@H](N)CCCNC(=N)N)C(=O)N[C@@H](Cc1c[nH]c2ccccc12)C(N)=O | 6.2 µM (≈ 10.7 µg/mL) | 3.6 µM (≈ 6.22 µg/mL) | – | HC50 ([5]; erythrocyte): 76 µM
CC[C@H](C)[C@H](NC(=O)[C@H](C)NC(=O)[C@H](CCCCN)NC(=O)[C@H](C)NC(=O)[C@H](C)NC(=O)[C@@H](NC(=O)[C@H](Cc1cnc[nH]1)NC(=O)[C@H](CC(C)C)NC(=O)[C@@H](NC(=O)[C@@H](NC(=O)[C@H](CCCCN)NC(=O)[C@H](CCCCN)NC(=O)[C@H](C)NC(=O)[C@H](CO)NC(=O)[C@H](CCCCN)NC(=O)[C@H](Cc1ccccc1)NC(=O)[C@@H](NC(=O)[C@H](CCCCN)NC(=O)[C@H](C)NC(=O)[C@H](Cc1ccccc1)NC(=O)[C@H](CO)NC(=O)[C@H](CCCCN)NC(=O)[C@H](Cc1c[nH]c2ccccc12)NC(=O)[C@H](CCCCN)NC(C)=O)[C@@H](C)O)[C@@H](C)O)C(C)C)[C@@H](C)O)C(=O)N[C@@H](CO)C(=O)N[C@@H](CO)C(N)=O (Ac-KWKSFAKTFKSAKKTVLHTAAKAISS-NH2) | – | – | 336 µM | MIC [2]: 168 µM (≈ 488 µg/mL)
CC(C)C[C@H](NC(=O)[C@H](CC(C)C)NC(=O)[C@H](CCCNC(=N)N)NC(=O)[C@H](Cc1cnc[nH]1)NC(=O)[C@@H](NC(=O)[C@H](CCCNC(=N)N)NC(=O)CNC(=O)[C@@H](NC(=O)[C@@H]1CCCN1C(=O)[C@@H](N)Cc1ccccc1)C(C)C)C(C)C)C(=O)N[C@@H](CCCNC(=N)N)C(=O)N[C@@H](CCCCN)C(=O)O (H-FPVGRVHRLLRK-OH) | > 173 µM | – | – | MIC [7]: > 173 µM; HC50 ([5]; red blood cells): > 270 µM
CC[C@H](C)[C@H](NC(=O)CN)C(=O)NCC(=O)N[C@@H](CCCCN)C(=O)N[C@@H](Cc1ccccc1)C(=O)N[C@@H](CC(C)C)C(=O)N[C@@H](Cc1cnc[nH]1)C(=O)N[C@@H](CO)C(=O)N[C@@H](C)C(=O)N[C@@H](CCCCN)C(=O)N[C@@H](CCCCN)C(=O)N[C@@H](Cc1c[nH]c2ccccc12)C(=O)NCC(=O)N[C@@H](CCCCN)C(=O)N[C@@H](C)C(=O)N[C@@H](Cc1ccccc1)C(=O)N[C@H](C(=O)NCC(=O)N[C@@H](CCC(=O)O)C(=O)N[C@H](C(=O)N[C@@H](CCSC)C(=O)N[C@@H](CC(N)=O)C(=O)N[C@@H](CO)C(N)=O)[C@@H](C)CC)C(C)C (H-GIGKFLHSAKKWGKAFVGEIMNS-NH2) | – | – | – | MIC [6]: > 50 µM
CSCC[C@H](NC(=O)[C@@H](NC(=O)[C@H](CCCNC(=N)N)NC(=O)[C@H](Cc1ccccc1)NC(=O)[C@H](C)NC(=O)[C@H](C)NC(=O)[C@H](CCCCN)NC(=O)[C@H](CCCNC(=N)N)NC(=O)[C@H](Cc1ccccc1)NC(=O)[C@H](C)NC(=O)[C@@H]1CCCN1C(=O)[C@@H](N)CCCNC(=N)N)C(C)C)C(=O)N[C@@H](CCCNC(=N)N)C(=O)N[C@@H](C)C(=O)N[C@@H](CS)C(=O)N[C@H](C(N)=O)C(C)C (H-RPAFRKAAFRVMRACV-NH2) | – | – | > 1300 µM | MIC [2]: 4 µM (≈ 7.51 µg/mL)
N=C(N)NCCC[C@H](NC(=O)[C@H](Cc1c[nH]c2ccccc12)NC(=O)[C@H](CCCNC(=N)N)NC(=O)[C@H](Cc1c[nH]c2ccccc12)NC(=O)[C@@H](N)CCCNC(=N)N)C(=O)N[C@@H](Cc1c[nH]c2ccccc12)C(N)=O (H-RWRWRW-NH2) | 16 µM (≈ 16.7 µg/mL) | 8 µM (≈ 8.35 µg/mL) | – | HC50 ([5]; erythrocyte): 210 µM
N=C(N)NCCC[C@H](NC(=O)[C@H](Cc1c[nH]c2ccccc12)NC(=O)[C@H](CCCNC(=N)N)NC(=O)[C@H](Cc1c[nH]c2ccccc12)NC(=O)[C@H](CCCNC(=N)N)NC(=O)[C@H](Cc1c[nH]c2ccccc12)NC(=O)[C@@H](N)CCCNC(=N)N)C(=O)N[C@@H](Cc1c[nH]c2ccccc12)C(N)=O (H-RWRWRWRW-NH2) | 9.6 µM (≈ 13.3 µg/mL) | 5.1 µM (≈ 7.07 µg/mL) | – | HC50 ([5]; erythrocyte): 100 µM
NC(N)=NCCC[C@H](NC(=O)[C@@H](N)Cc1c[nH]c2ccccc12)C(=O)N[C@@H](Cc1c[nH]c2ccccc12)C(=O)OCc1ccccc1 (H-Trp-Arg-Trp-OBn) | 140 µM (≈ 89.1 µg/mL) | 9 µM (≈ 5.73 µg/mL) | – | –
CCCCCCCCCCC(=O)NCC(=O)N[C@H](C(=O)NCC(=O)N[C@@H](CCCCN)C(=O)N[C@@H](Cc1ccccc1)C(=O)N[C@@H](CC(C)C)C(=O)N[C@@H](Cc1cnc[nH]1)C(=O)N[C@@H](CO)C(=O)N[C@@H](C)C(=O)N[C@@H](CCCCN)C(=O)N[C@@H](CCCCN)C(=O)N[C@@H](Cc1c[nH]c2ccccc12)C(=O)NCC(=O)N[C@@H](CCCCN)C(=O)N[C@@H](C)C(=O)N[C@@H](Cc1ccccc1)C(=O)N[C@H](C(=O)NCC(=O)N[C@@H](CCC(=O)O)C(=O)N[C@H](C(=O)N[C@@H](CCSC)C(=O)N[C@@H](CC(N)=O)C(=O)N[C@@H](CO)C(N)=O)[C@@H](C)CC)C(C)C)[C@@H](C)CC (Undecanoyl-GIGKFLHSAKKWGKAFVGEIMNS-NH2) | – | – | – | MIC [6]: 6.25 µM (≈ 16.7 µg/mL)
CC[C@H](C)[C@H](NC(=O)CN)C(=O)NCC(=O)N[C@@H](C)C(=O)N[C@H](C(=O)N(CC(=O)N[C@@H](CCCCN)C(=O)N[C@H](C(=O)N[C@@H](CC(C)C)C(=O)N[C@H](C(=O)N[C@H](C(=O)NCC(=O)N(CC(=O)N1CCC[C@H]1C(=O)N[C@@H](C)C(=O)N[C@@H](CC(C)C)C(=O)N[C@H](C(=O)N[C@@H](CO)C(=O)N[C@@H](Cc1c[nH]c2ccccc12)C(=O)N(CC(=O)N[C@@H](CCCCN)C(=O)N[C@@H](CCCNC(=N)N)C(=O)N[C@@H](CCCCN)C(=O)N[C@@H](CCCNC(=N)N)C(=O)N[C@@H](CCC(N)=O)C(=O)N[C@@H](CCC(N)=O)C(=O)O)Cc1ccccc1)[C@@H](C)CC)Cc1ccccc1)[C@@H](C)O)[C@@H](C)O)C(C)C)Cc1ccccc1)C(C)C [MELITTIN PEPTOID F] (H-GIGAV[Nphe]KVLTTG[Nphe]PALISW[Nphe]KRKRQQ-OH) | 4 µM (≈ 11.8 µg/mL) | 2 µM (≈ 5.9 µg/mL) | > 100 µM | –
CC[C@H](C)[C@H](NC(=O)[C@H](CCCCN)NC(=O)[C@@H](NC(=O)[C@H](CCC(N)=O)NC(=O)[C@@H](N)CCCNC(=N)N)[C@@H](C)CC)C(=O)N[C@@H](Cc1c[nH]c2ccccc12)C(=O)N[C@@H](Cc1ccccc1)C(=O)N[C@@H](CCC(N)=O)C(=O)N[C@@H](CC(N)=O)C(=O)N[C@@H](CCCNC(=N)N)C(=O)N[C@@H](CCCNC(=N)N)C(=O)N[C@@H](CCSC)C(=O)N[C@@H](CCCCN)C(=O)N[C@@H](Cc1c[nH]c2ccccc12)C(=O)N[C@@H](CCCCN)C(=O)N[C@@H](CCCCN)C(N)=O [PENETRATIN] | 2 µM (≈ 4.49 µg/mL) | 1 µM (≈ 2.25 µg/mL) | > 200 µM | –
